According to patent publication US12594267B2, “Capsid inhibitors for the treatment of HIV” (Gilead Sciences, Inc., priority 2018, dated 2026):

Test: PK after subcutaneous administration of solutions in dogs
Assay type: in vivo, Beagle dog
Description: Formulations containing the compound of Formula (Ia) were prepared as aqueous solutions or oral formulations and administered subcutaneously to rats, dogs, cynomolgus monkey, and/or rhesus monkey.
A solution of the compound of Formula (Ia) in 10% ethanol, 13% water, and 77% PEG 200 (400 mg/mL) was prepared. The solution was administered subcutaneously to dogs at a dose of 12 mg/kg and rats at a dose of 50 mg/kg and the pharmacokinetic (PK) profile was determined. […] In both species, plasma concentrations of the compound of Formula (Ia) were maintained above the target trough concentration of 20 nM (corresponding to an IQ of 5) for at least 84 days (12 weeks).
A solution of the compound of Formula (Ia) in 15% water and 85.0 PEG 300 (400 mg/mL) was prepared. The solution was administered subcutaneously to male beagle dogs at a dose level of 12 mg/kg and dose volume of […] and the pharmacokinetic (PK) profile was determined.
A solution of the compound of Formula (a) sodium salt in water and 300 (300 mg/mL) was prepared that contained 22.6% water/50% PEG 300/1.1% NaOH/26.3% Formula (Ia). The solution was administered subcutaneously to male beagle dogs at a dose level of 12 mg/kg and dose volume of […] and the pharmacokinetic (PK) profile was determined.
A 300 mg/ml solution of a compound of Formula (Ia) having 9.8 w/w % water, 65.0 w/w % PEG 300, and 25.2 w/w % of the compound of Formula (Ia) was prepared. The solution was administered subcutaneously to rats at a dose of 50 mg/kg and to dogs at a dose of 12 mg/kg and the pharmacokinetic (PK) profile was determined. […] In the rat, plasma concentrations of the compound of Formula (Ia) were maintained above the target trough concentration of 20 nM for at least 168 days (24 weeks). In the dog, plasma concentrations of the compound of Formula (Ia) were maintained above the target trough concentration of 20 nM for at least 84 days (12 weeks).
(§1) A 150 mg/ml solution of a compound of Formula (Ia) having 27.92 w/w % water, 58.04 w/w % PEG 300, 13.47 w/w % of a compound of Formula (Ia), and 1.1 w/w % NaOH was prepared. The solution was administered subcutaneously to rats at a dose of 50 mg/kg and to dogs at a dose of 12 mg/kg and the pharmacokinetic (PK) profile was determined. […] In the rat, plasma concentrations of the compound of Formula (Ia) were maintained above the target trough concentration of 20 nM for at least 126 days (18 weeks). In the dog, plasma concentrations of the compound of Formula (Ia) were maintained above the target trough concentration of 20 nM for at least 56 days (8 weeks).
as §1, with “300” for “150”, “23.2” for “27.92”, “50.0” for “58.04”, “25.7” for “13.47”
A 50 mg/ml solution of a compound of Formula (Ia) having 30.07 w/w % water, 64.40 w/w % PEG 300, 4.68 w/w % of a sodium salt of the compound of Formula (Ia), and 0.85 w/w % poloxamer 188 was prepared. The solution was administered subcutaneously to rats at a dose of 50 mg/kg and to dogs at a dose of 6 mg/kg and the pharmacokinetic (PK) profile was determined. […] In the rat, plasma concentrations of the compound of Formula (Ia) were maintained above the target trough concentration of 20 nM for at least 28 days (4 weeks). In the dog, plasma concentrations of the compound of Formula (Ia) were maintained above the target trough concentration of 20 nM for at least 14 days (2 weeks). […]

[1] = beagle, dog, plasma, sc, 12 mg/kg, SC 12 mg/kg, 400 mg/mL solution in 10% ethanol, 13% water, 77% PEG 200, mean ± SD, n=3
[2] = dog, SC 12 mg/kg, 150 mg/mL solution (w/w %: 27.92 water, 58.04 PEG 300, 13.47 Formula (Ia), 1.1 NaOH), mean ± SD, n=3

CC(C)(C#Cc1ccc(-c2ccc(Cl)c3c(NS(C)(=O)=O)nn(CC(F)(F)F)c23)c([C@H](Cc2cc(F)cc(F)c2)NC(=O)Cn2nc(C(F)(F)F)c3c2C(F)(F)[C@@H]2C[C@H]32)n1)S(C)(=O)=O [Formula (Ia), N—((S)-1-(3-(4-chloro-3-(methylsulfonamido)-1-(2,2,2-trifluoroethyl)-1H-indazol-7-yl)-6-(3-methyl-3-(methylsulfonyl)but-1-yn-1-yl)pyridin-2-yl)-2-(3,5-difluorophenyl)ethyl)-2-((3bS,4aR)-5,5-difluoro-3-(trifluoromethyl)-3b,4,4a,5-tetrahydro-1H-cyclopropa[3,4]cyclopenta[1,2-c]pyrazol-1-yl)acetamide]
AUC(0-t) (beagle, dog, plasma, sc, 12 mg/kg, dog, SC 12 mg/kg, 400 mg/mL solution in 10% ethanol, 13% water, 77% PEG 200, mean ± SD, n=3, read-out: AUC0-140d): 111 ± 14 µM·h
concentration at 84 d (beagle, dog, plasma, sc, 12 mg/kg, dog, SC 12 mg/kg, 400 mg/mL solution in 10% ethanol, 13% water, 77% PEG 200, mean ± SD, n=3, read-out: C84d): 23.4 ± 5.7 nM
Cmax [1]: 107 ± 13 nM
Tmax [1]: 14 days
Plasma concentration (dog #1, 0 h, SC 12 mg/kg, 400 mg/mL in 15% water/85% PEG 300): BLQ
Plasma concentration (dog #1, 1.0 h, SC 12 mg/kg, 400 mg/mL in 15% water/85% PEG 300): BLQ
Plasma concentration (dog #2, 0 h, SC 12 mg/kg, 400 mg/mL in 15% water/85% PEG 300): BLQ
Plasma concentration (dog #3, 0 h, SC 12 mg/kg, 400 mg/mL in 15% water/85% PEG 300): BLQ
Time plasma concentrations maintained above the target trough concentration of 20 nM (dog, SC 6 mg/kg, 50 mg/mL solution (w/w %: 30.07 water, 64.40 PEG 300, 4.68 sodium salt of Formula (Ia), 0.85 poloxamer 188)): at least 14 days
Time plasma concentrations maintained above the target trough concentration of 20 nM (dog, SC 6 mg/kg, 75 mg/mL solution (w/w %: 29.21 water, 62.55 PEG 300, 6.97 sodium salt of Formula (Ia), 1.68 poloxamer 188)): at least 21 days
Time plasma concentrations maintained above the target trough concentration of 20 nM (dog, SC 6 mg/kg, 100 mg/mL solution (w/w %: 28.36 water, 60.73 PEG 300, 9.23 sodium salt of Formula (Ia), 1.68 poloxamer 188)): at least 14 days
AUC0-14d (dog, SC 6 mg/kg, 100 mg/mL solution (w/w %: 28.36 water, 60.73 PEG 300, 9.23 sodium salt of Formula (Ia), 1.68 poloxamer 188), mean ± SD, n=3): 104 ± 26 µM·h
Time plasma concentrations maintained above the target trough concentration of 20 nM (dog, SC 6 mg/kg, 125 mg/mL solution (w/w %: 27.51 water, 58.92 PEG 300, 11.48 sodium salt of Formula (Ia), 2.09 poloxamer 188)): at least 14 days
Time plasma concentrations maintained above the target trough concentration of 20 nM (dog, SC 6 mg/kg, 150 mg/mL solution (w/w %: 26.6 water, 56.97 PEG 300, 13.39 Formula (Ia), 0.57 NaOH, 2.49 poloxamer 188)): at least 56 days
Time plasma concentrations maintained above the target trough concentration of 20 nM (dog, SC 6 mg/kg, 300 mg/mL solution (w/w %: 21.97 water, 47.05 PEG 300, 25.21 Formula (Ia), 1.08 NaOH, 4.69 poloxamer 188)): at least 56 days
AUC0-84d (dog, SC 6 mg/kg, 300 mg/mL solution (w/w %: 21.97 water, 47.05 PEG 300, 25.21 Formula (Ia), 1.08 NaOH, 4.69 poloxamer 188), mean ± SD, n=3): 65.4 ± 21.5 µM·h
Time plasma concentrations maintained above the target trough concentration of 20 nM (dog, SC 12 mg/kg, 150 mg/mL solution (w/w %: 27.92 water, 58.04 PEG 300, 13.47 Formula (Ia), 1.1 NaOH)): at least 56 days
AUC0-28d [2]: 137.0 ± 38 µM·h
AUC0-126d [2]: 196 ± 31 µM·h
Time plasma concentrations maintained above the target trough concentration of 20 nM (dog, SC 12 mg/kg, 300 mg/mL solution (w/w %: 9.8 water, 65.0 PEG 300, 25.2 Formula (Ia))): at least 84 days
Time plasma concentrations maintained above the target trough concentration of 20 nM (dog, SC 12 mg/kg, 300 mg/mL solution (w/w %: 23.2 water, 50.0 PEG 300, 25.7 Formula (Ia), 1.1 NaOH)): at least 56 days
Time plasma concentrations maintained above the target trough concentration of 20 nM (dog, SC 12 mg/kg, 400 mg/mL solution in 10% ethanol, 13% water, 77% PEG 200): at least 84 days
concentration at 3 h (male, beagle, dog, plasma, sc, 12 mg/kg, dog #1, 3.0 h, SC 12 mg/kg, 400 mg/mL in 15% water/85% PEG 300): 1.2 nM
concentration at 8 h (male, beagle, dog, plasma, sc, 12 mg/kg, dog #1, 8.0 h, SC 12 mg/kg, 400 mg/mL in 15% water/85% PEG 300): 10.6 nM
concentration at 24 h (male, beagle, dog, plasma, sc, 12 mg/kg, dog #1, 24.0 h, SC 12 mg/kg, 400 mg/mL in 15% water/85% PEG 300): 19.8 nM
concentration at 48 h (male, beagle, dog, plasma, sc, 12 mg/kg, dog #1, 48.0 h, SC 12 mg/kg, 400 mg/mL in 15% water/85% PEG 300): 54.6 nM
concentration at 72 h (male, beagle, dog, plasma, sc, 12 mg/kg, dog #1, 72.0 h, SC 12 mg/kg, 400 mg/mL in 15% water/85% PEG 300): 62.8 nM
concentration at 96 h (male, beagle, dog, plasma, sc, 12 mg/kg, dog #1, 96.0 h, SC 12 mg/kg, 400 mg/mL in 15% water/85% PEG 300): 58.9 nM
concentration at 168 h (male, beagle, dog, plasma, sc, 12 mg/kg, dog #1, 168 h, SC 12 mg/kg, 400 mg/mL in 15% water/85% PEG 300): 71.9 nM
